Source: PMC5218480 (PLoS ONE, 2017)

Tested on: MV-4-11 cells
Assay: Gene expression microarray analysis (Affymetrix PrimeView) and GSEA
Type: cell-based, human
Parameters: RFU PODN (11730768_x_at) / Fold change /veh PODN (11730768_x_at) / RFU LINC00158 (11744669_a_at) / Fold change /veh LINC00158 (11744669_a_at) / RFU DUSP10 (11751237_a_at) / Fold change /veh DUSP10 (11751237_a_at) / RFU ID3 (11757404_x_at) / Fold change /veh ID3 (11757404_x_at) / RFU PLEKHG5 (11737974_s_at) / Fold change /veh PLEKHG5 (11737974_s_at) / RFU LRRC4B (11730491_at) / Fold change /veh LRRC4B (11730491_at) / RFU GIMAP4 (11747438_a_at) / Fold change /veh GIMAP4 (11747438_a_at) / RFU KRT8 (11758183_x_at) / Fold change /veh KRT8 (11758183_x_at) / RFU CNN1 (11734310_a_at) / Fold change /veh CNN1 (11734310_a_at) / RFU VPS37D (11726825_at) / Fold change /veh VPS37D (11726825_at) / RFU C10orf10 (11716522_x_at) / Fold change /veh C10orf10 (11716522_x_at) / RFU KIR2DL2 /// KIR2DL4 /// KIR2DL5A /// KIR2DL5B /// KIR2DS1 /// KIR2DS2 /// KIR2DS3 /// KIR2DS4 /// KIR3DL3 /// KIR3DL3 /// KIR3DS1 (11738374_at) / Fold change /veh KIR2DL2 /// KIR2DL4 /// KIR2DL5A /// KIR2DL5B /// KIR2DS1 /// KIR2DS2 /// KIR2DS3 /// KIR2DS4 /// KIR3DL3 /// KIR3DL3 /// KIR3DS1 (11738374_at) / RFU C1QL1 (11718748_at) / Fold change /veh C1QL1 (11718748_at) / RFU TMPRSS4 (11747572_a_at) / Fold change /veh TMPRSS4 (11747572_a_at) / RFU HAMP (11756126_x_at) / Fold change /veh HAMP (11756126_x_at) / RFU RNFT2 (11725882_a_at) / Fold change /veh RNFT2 (11725882_a_at) / RFU NR4A2 (11747474_a_at) / Fold change /veh NR4A2 (11747474_a_at) / RFU ABCC12 (11746883_a_at) / Fold change /veh ABCC12 (11746883_a_at) / RFU TMEM136 (11760407_x_at) / Fold change /veh TMEM136 (11760407_x_at) / RFU CLDN22 /// WWC2 (11732394_at) / Fold change /veh CLDN22 /// WWC2 (11732394_at) / RFU HLA-DPB1 (11760878_x_at) / Fold change /veh HLA-DPB1 (11760878_x_at) / RFU SPINT1 (11716480_a_at) / Fold change /veh SPINT1 (11716480_a_at) / RFU GAP43 (11754022_s_at) / Fold change /veh GAP43 (11754022_s_at) / RFU A4GNT (11735810_at) / Fold change /veh A4GNT (11735810_at) / RFU PRB3 (11715151_x_at) / Fold change /veh PRB3 (11715151_x_at) / RFU TUBB4B (11761932_at) / Fold change /veh TUBB4B (11761932_at) / RFU CAPN14 (11732068_a_at) / Fold change /veh CAPN14 (11732068_a_at) / RFU TMCC2 (11721928_a_at) / Fold change /veh TMCC2 (11721928_a_at) / RFU IRGQ (11745062_a_at) / Fold change /veh IRGQ (11745062_a_at) / RFU FAM174B (11720279_a_at) / Fold change /veh FAM174B (11720279_a_at) / RFU TMPRSS4 (11748680_a_at) / Fold change /veh TMPRSS4 (11748680_a_at) / RFU FAM212B (11763350_a_at) / Fold change /veh FAM212B (11763350_a_at) / RFU PLEKHG5 (11743358_a_at) / Fold change /veh PLEKHG5 (11743358_a_at) / RFU ZSCAN30 (11745921_a_at) / Fold change /veh ZSCAN30 (11745921_a_at) / RFU CMKLR1 (11741424_a_at) / Fold change /veh CMKLR1 (11741424_a_at) / RFU LOC101060620 /// MAPK8IP1 (11723275_at) / Fold change /veh LOC101060620 /// MAPK8IP1 (11723275_at) / RFU SPTSSB (11747773_x_at) / Fold change /veh SPTSSB (11747773_x_at) / RFU PRSS12 (11739890_at) / Fold change /veh PRSS12 (11739890_at) / RFU BIN1 (11741810_x_at) / Fold change /veh BIN1 (11741810_x_at) / RFU WNT11 (11732464_a_at) / Fold change /veh WNT11 (11732464_a_at) / RFU C10orf10 (11716521_a_at) / Fold change /veh C10orf10 (11716521_a_at) / RFU C5orf56 (11738089_at) / Fold change /veh C5orf56 (11738089_at) / RFU CYB561 (11721691_x_at) / Fold change /veh CYB561 (11721691_x_at) / RFU ANKRD19P (11752326_a_at) / Fold change /veh ANKRD19P (11752326_a_at) / RFU OR2T12 /// OR2T33 /// OR2T8 (11738714_s_at) / Fold change /veh OR2T12 /// OR2T33 /// OR2T8 (11738714_s_at) / RFU VCAN (11748164_a_at) / Fold change /veh VCAN (11748164_a_at) / RFU JSRP1 (11732532_at) / Fold change /veh JSRP1 (11732532_at) / RFU KRTAP10-11 (11738290_x_at) / Fold change /veh KRTAP10-11 (11738290_x_at) / RFU MYO3A (11730013_a_at) / Fold change /veh MYO3A (11730013_a_at) / RFU EBF3 (11725865_a_at) / Fold change /veh EBF3 (11725865_a_at) / RFU CAMK2N1 (11719241_x_at) / Fold change /veh CAMK2N1 (11719241_x_at) / RFU C5orf56 (11738088_a_at) / Fold change /veh C5orf56 (11738088_a_at) / RFU OLFML3 (11715873_a_at) / Fold change /veh OLFML3 (11715873_a_at) / RFU LOC100653217 /// NTM (11731650_a_at) / Fold change /veh LOC100653217 /// NTM (11731650_a_at) / RFU MAPK11 (11762145_a_at) / Fold change /veh MAPK11 (11762145_a_at) / RFU FIZ1 (11724087_x_at) / Fold change /veh FIZ1 (11724087_x_at) / RFU OASL (11726364_x_at) / Fold change /veh OASL (11726364_x_at) / RFU SOX15 (11748057_x_at) / Fold change /veh SOX15 (11748057_x_at) / RFU CD79A (11719716_a_at) / Fold change /veh CD79A (11719716_a_at) / RFU HIST1H1D (11736915_at) / Fold change /veh HIST1H1D (11736915_at) / RFU CASKIN2 (11723855_a_at) / Fold change /veh CASKIN2 (11723855_a_at) / RFU LOC730098 (11760151_x_at) / Fold change /veh LOC730098 (11760151_x_at) / RFU OR4N2 (11742367_at) / Fold change /veh OR4N2 (11742367_at) / RFU PRRT2 (11749266_a_at) / Fold change /veh PRRT2 (11749266_a_at) / RFU SNX32 (11753110_a_at) / Fold change /veh SNX32 (11753110_a_at) / RFU CDHR5 (11726645_a_at) / Fold change /veh CDHR5 (11726645_a_at) / RFU RCAN1 (11760418_a_at) / Fold change /veh RCAN1 (11760418_a_at) / RFU FAM167A (11723789_a_at) / Fold change /veh FAM167A (11723789_a_at) / RFU FAM26E (11764081_at) / Fold change /veh FAM26E (11764081_at) / RFU ISYNA1 (11749810_s_at) / Fold change /veh ISYNA1 (11749810_s_at) / RFU ACY1 (11761880_at) / Fold change /veh ACY1 (11761880_at) / RFU 11764098_at / Fold change /veh 11764098_at / RFU SAMD14 (11745864_x_at) / Fold change /veh SAMD14 (11745864_x_at) / RFU NPB (11741838_a_at) / Fold change /veh NPB (11741838_a_at) / RFU TMPRSS6 (11731388_a_at) / Fold change /veh TMPRSS6 (11731388_a_at) / RFU KRTAP10-2 (11738614_at) / Fold change /veh KRTAP10-2 (11738614_at) / RFU ARHGAP8 /// PRR5-ARHGAP8 (11727945_x_at) / Fold change /veh ARHGAP8 /// PRR5-ARHGAP8 (11727945_x_at) / RFU KRTAP5-7 /// NADSYN1 (11734609_at) / Fold change /veh KRTAP5-7 /// NADSYN1 (11734609_at) / RFU RASL12 (11751679_a_at) / Fold change /veh RASL12 (11751679_a_at) / RFU CDKN2B (11736163_a_at) / Fold change /veh CDKN2B (11736163_a_at) / RFU PRF1 (11729649_at) / Fold change /veh PRF1 (11729649_at) / RFU, ZNF638 /// ZNF638-IT1 / Fold change vs veh, ZNF638 /// ZNF638-IT1 / RFU, PANK3 / Fold change vs veh, PANK3 / RFU, SH3YL1 / Fold change vs veh, SH3YL1 / RFU, ZEB2 / Fold change vs veh, ZEB2 / RFU, NRIP1 / Fold change vs veh, NRIP1 / RFU, PTTG1IP / Fold change vs veh, PTTG1IP / RFU, CAPN2 / Fold change vs veh, CAPN2 / RFU, MED14 / Fold change vs veh, MED14 / RFU, SNORA58 / Fold change vs veh, SNORA58 / RFU, C1orf63 / Fold change vs veh, C1orf63 / RFU, LRRFIP1 / Fold change vs veh, LRRFIP1 / RFU, NDUFAF7 / Fold change vs veh, NDUFAF7 / RFU, SLC12A2 / Fold change vs veh, SLC12A2 / RFU, IBTK / Fold change vs veh, IBTK / RFU, ESF1 / Fold change vs veh, ESF1 / Fold change vs veh, TMEM50B / RFU, TAOK1 / Fold change vs veh, TAOK1 / RFU, ACBD3 / Fold change vs veh, ACBD3 / RFU, TMA16 / Fold change vs veh, TMA16 / RFU, RWDD3 / Fold change vs veh, RWDD3 / RFU, BCAT1 / Fold change vs veh, BCAT1 / RFU, EDEM3 / Fold change vs veh, EDEM3 / RFU, TMEM33 / Fold change vs veh, TMEM33 / RFU, WDR75 / Fold change vs veh, WDR75 / RFU, AHCTF1 / Fold change vs veh, AHCTF1 / RFU, TFRC / Fold change vs veh, TFRC / RFU, ZDHHC17 / Fold change vs veh, ZDHHC17 / RFU, NOM1 / Fold change vs veh, NOM1 / RFU, ARL8B / Fold change vs veh, ARL8B / RFU, ZBTB11 / Fold change vs veh, ZBTB11 / RFU, TAMM41 / Fold change vs veh, TAMM41 / RFU, KIAA1704 /// LOC100996395 / Fold change vs veh, KIAA1704 /// LOC100996395 / RFU, ING1 / Fold change vs veh, ING1 / RFU, TRMT61B / Fold change vs veh, TRMT61B / RFU, FUBP3 / Fold change vs veh, FUBP3 / RFU, TP53 / Fold change vs veh, TP53 / RFU, TNKS2 / Fold change vs veh, TNKS2 / RFU, ZFP14 / Fold change vs veh, ZFP14 / RFU, ACTR2 / Fold change vs veh, ACTR2 / RFU, PPP3R1 / Fold change vs veh, PPP3R1 / RFU, PIK3R1 / Fold change vs veh, PIK3R1 / RFU, HNRNPA1 / Fold change vs veh, HNRNPA1 / RFU, RNF170 / Fold change vs veh, RNF170 / RFU, ZNF28 / Fold change vs veh, ZNF28 / RFU, RNGTT / Fold change vs veh, RNGTT / RFU, OGT / Fold change vs veh, OGT / RFU, BRD1 / Fold change vs veh, BRD1 / RFU, MARS / Fold change vs veh, MARS / RFU, ZNF655 / Fold change vs veh, ZNF655 / RFU, FAHD1 / Fold change vs veh, FAHD1 / RFU, BDP1 / Fold change vs veh, BDP1 / RFU, LRRCC1 / Fold change vs veh, LRRCC1 / RFU, ARID1A / Fold change vs veh, ARID1A / RFU, ZNF146 / Fold change vs veh, ZNF146 / RFU, ZNF330 / Fold change vs veh, ZNF330 / RFU, GPN3 / Fold change vs veh, GPN3 / RFU, C9orf123 / Fold change vs veh, C9orf123 / RFU, N4BP2L2 / Fold change vs veh, N4BP2L2 / RFU, ARFIP1 / Fold change vs veh, ARFIP1 / RFU, FAM179B / Fold change vs veh, FAM179B / RFU, BCL10 / Fold change vs veh, BCL10 / RFU, UHRF1BP1L / Fold change vs veh, UHRF1BP1L / RFU, BET1 / Fold change vs veh, BET1 / RFU, CNOT2 / Fold change vs veh, CNOT2 / RFU, ZNF268 / Fold change vs veh, ZNF268 / Fold change vs veh, ZNF507 / RFU, DGCR2 / Fold change vs veh, DGCR2 / RFU, WDSUB1 / Fold change vs veh, WDSUB1 / Fold change vs veh, HSP90B1 /// MIR3652 / RFU, ADSS / Fold change vs veh, ADSS / RFU, GK / Fold change vs veh, GK / RFU, ZNF148 / Fold change vs veh, ZNF148 / RFU, TAF9 / Fold change vs veh, TAF9 / RFU, SLC1A5 / Fold change vs veh, SLC1A5 / RFU, SLMO2 / Fold change vs veh, SLMO2 / RFU, ABCC4 / Fold change vs veh, ABCC4 / RFU, LOC101060439 /// RAP1B / Fold change vs veh, LOC101060439 /// RAP1B / RFU, RFX7 / Fold change vs veh, RFX7 / RFU, GTPBP10 / Fold change vs veh, GTPBP10 / RFU, CNEP1R1 / Fold change vs veh, CNEP1R1 / RFU, BIVM-ERCC5 /// ERCC5 / Fold change vs veh, BIVM-ERCC5 /// ERCC5 / RFU, ILF3 / Fold change vs veh, ILF3 / RFU 11762660_at / Fold change /veh 11762660_at / RFU VCAN (11757783_s_at) / Fold change /veh VCAN (11757783_s_at) / RFU DDX43 (11728927_at) / Fold change /veh DDX43 (11728927_at) / RFU KRT8 (11758188_x_at) / Fold change /veh KRT8 (11758188_x_at) / RFU NKD1 (11759106_at) / Fold change /veh NKD1 (11759106_at) / RFU SRD5A1 (11742802_a_at) / Fold change /veh SRD5A1 (11742802_a_at) / RFU TPSAB1 /// TPSB2 (11721975_s_at) / Fold change /veh TPSAB1 /// TPSB2 (11721975_s_at) / RFU GSTM3 (11746129_a_at) / Fold change /veh GSTM3 (11746129_a_at) / RFU IL23R (11737362_x_at) / Fold change /veh IL23R (11737362_x_at) / RFU TMEM51 (11727254_a_at) / Fold change /veh TMEM51 (11727254_a_at) / RFU PIWIL2 (11732686_x_at) / Fold change /veh PIWIL2 (11732686_x_at) / RFU ORM1 (11744905_x_at) / Fold change /veh ORM1 (11744905_x_at) / RFU CCDC152 (11743942_at) / Fold change /veh CCDC152 (11743942_at) / RFU ECM1 (11717891_a_at) / Fold change /veh ECM1 (11717891_a_at) / RFU IL23R (11748794_a_at) / Fold change /veh IL23R (11748794_a_at) / RFU TNFAIP8L3 (11732012_x_at) / Fold change /veh TNFAIP8L3 (11732012_x_at) / RFU MBOAT4 (11741988_at) / Fold change /veh MBOAT4 (11741988_at) / RFU 11764193_at / Fold change /veh 11764193_at / RFU TMEM53 (11763286_at) / Fold change /veh TMEM53 (11763286_at) / RFU MAGEB2 (11727129_at) / Fold change /veh MAGEB2 (11727129_at) / RFU TMEM200A (11744735_a_at) / Fold change /veh TMEM200A (11744735_a_at) / RFU CCDC152 (11751479_a_at) / Fold change /veh CCDC152 (11751479_a_at) / RFU FAM211A (11726209_a_at) / Fold change /veh FAM211A (11726209_a_at) / RFU RGS16 (11746705_a_at) / Fold change /veh RGS16 (11746705_a_at) / RFU VCAN (11755009_s_at) / Fold change /veh VCAN (11755009_s_at) / RFU RHOB (11743442_s_at) / Fold change /veh RHOB (11743442_s_at) / RFU RGS16 (11720943_a_at) / Fold change /veh RGS16 (11720943_a_at) / RFU RGS16 (11720944_at) / Fold change /veh RGS16 (11720944_at) / RFU, VPS4B / Fold change vs veh, VPS4B / RFU, CREB1 / Fold change vs veh, CREB1 / RFU, DNAJC13 / Fold change vs veh, DNAJC13 / RFU, GNAQ / Fold change vs veh, GNAQ / RFU, CDK5R1 / Fold change vs veh, CDK5R1 / RFU, ZRANB3 / Fold change vs veh, ZRANB3 / RFU, CUL4A / Fold change vs veh, CUL4A / RFU, CCNY / Fold change vs veh, CCNY / RFU, UFL1 / Fold change vs veh, UFL1 / RFU, COG3 / Fold change vs veh, COG3 / RFU, DIAPH2 / Fold change vs veh, DIAPH2 / RFU, SKA2 / Fold change vs veh, SKA2 / RFU, AFF3 / Fold change vs veh, AFF3 / RFU, LMF1 / Fold change vs veh, LMF1 / RFU, IPO11 / Fold change vs veh, IPO11 / RFU, DFFB / Fold change vs veh, DFFB / RFU, FOXP1 / Fold change vs veh, FOXP1 / RFU, CARD8 / Fold change vs veh, CARD8 / RFU, STRN3 / Fold change vs veh, STRN3 / RFU, ADK / Fold change vs veh, ADK / RFU, RASSF2 / Fold change vs veh, RASSF2 / RFU, WIPF1 / Fold change vs veh, WIPF1 / RFU, LARP1B / Fold change vs veh, LARP1B / RFU, RASA1 / Fold change vs veh, RASA1 / RFU, RB1 / Fold change vs veh, RB1 / RFU, PPFIA1 / Fold change vs veh, PPFIA1 / RFU, MAT2A / Fold change vs veh, MAT2A / RFU, CCT5 / Fold change vs veh, CCT5 / RFU, WDR92 / Fold change vs veh, WDR92 / RFU, CUX1 / Fold change vs veh, CUX1 / RFU, TTC7A / Fold change vs veh, TTC7A / RFU, TMEM135 / Fold change vs veh, TMEM135 / RFU, DEPTOR / Fold change vs veh, DEPTOR / RFU, CPM / Fold change vs veh, CPM / RFU, DNAJB6 / Fold change vs veh, DNAJB6 / RFU, CACNA2D3 / Fold change vs veh, CACNA2D3 / RFU, DTX4 / Fold change vs veh, DTX4 / RFU, TFCP2 / Fold change vs veh, TFCP2 / RFU, GMCL1 /// GMCL1P1 / Fold change vs veh, GMCL1 /// GMCL1P1 / RFU, AEBP2 / Fold change vs veh, AEBP2 / RFU, SNHG1 /// SNORD22 /// SNORD25 /// SNORD26 /// SNORD27 /// SNORD28 /// SNORD29 /// SNORD31 / Fold change vs veh, SNHG1 /// SNORD22 /// SNORD25 /// SNORD26 /// SNORD27 /// SNORD28 /// SNORD29 /// SNORD31 / Fold change (Aza/veh), C12orf56 (ProbeSet 11735607_a_at) / Fold change (ACY-1035/veh), C12orf56 (ProbeSet 11735607_a_at) / Fold change (Aza/veh), FGFR1OP (ProbeSet 11751329_s_at) / Fold change (ACY-1035/veh), FGFR1OP (ProbeSet 11751329_s_at) / Fold change (Aza/veh), VPS36 (ProbeSet 11739960_a_at) / Fold change (ACY-1035/veh), VPS36 (ProbeSet 11739960_a_at) / RFU SYPL1 (11715823_x_at) / Fold change /veh SYPL1 (11715823_x_at) / RFU IGFBP7 (11715501_s_at) / Fold change /veh IGFBP7 (11715501_s_at) / RFU REEP3 (11722064_at) / Fold change /veh REEP3 (11722064_at) / RFU IGLL1 (11728026_x_at) / Fold change /veh IGLL1 (11728026_x_at): dose or concentration left out as unconfirmed
Settings: MV-4-11 cells, 48 hours

**Q.** With Nc1ccc(-c2cccs2)cc1NC(=O)c1ccc2c(c1)cc(C1CC1)n2CCN1CCOCC1 [ACY-1035] as the molecule, how does the “RFU LOC100653217 /// NTM (11731650_a_at)” value read?
**A.** 9.86 RFU
